{
  "source": "patent US20250282799A1",
  "about": "“SUBSTITUTED PYRIDO[4,3-d]PYRIMIDINES AS KRAS MODULATORS” (Alterome Therapeutics, Inc., priority 2023, published 2025)",
  "data": [
    {"tested_on": "KRAS G12V dependent lung adenocarcinoma cell line, NCI-H441", "assay": "Cellular pERK (Thr202/Tyr204) FRET/HTRF assay", "type": "cell-based", "settings": "Homo sapiens, NCI-H441, cellular pERK (Thr202/Tyr204) HTRF, NCI-H441 cells", "in_short": "(§1)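 NCI-H441, overnight plating → cpd 1 hr, 37 °C/5% CO2; DMSO neg ctrl. Lyse (phosphatase inhibitors), add donor/acceptor Abs, RT incubation, HTRF read. IC50 by curve fit.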", "units": {"IC50": "nM"}, "values": [
      {"smiles": "[2H]C([2H])(Oc1nc(N2CCOC[C@@H]3[C@@H](F)[C@@H]32)c2cc(F)c(-c3cc(N)cc(C4CC4)c3C(F)(F)F)c(F)c2n1)[C@@]12CCCN1C[C@H](F)C2", "note": "[Example 164, 3-cyclopropyl-5-(6,8-difluoro-4-((1R,7R,8R)-8-fluoro-5-oxa-2-azabicyclo[5.1.0]octan-2-yl)-2-(((2R,7aS)-2-fluorotetrahydro-1H-pyrrolizin-7a(5H)-yl)methoxy-d2)quinazolin-7-yl)-4-(trifluoromethyl)aniline]", "IC50": "500 to 10000"},
      {"smiles": "[2H]C([2H])([2H])Oc1c(F)c(F)cc2cccc(-c3ncc4c(N5CCCC[C@H]6[C@H](F)[C@H]65)nc(OC([2H])([2H])[C@@]56CCCN5C[C@H](F)C6)nc4c3F)c12", "note": "[Example 109, 7-(6,7-difluoro-8-(methoxy-d3)naphthalen-1-yl)-8-fluoro-4-((1S,7R,8S)-8-fluoro-2-azabicyclo[5.1.0]octan-2-yl)-2-(((2R,7aS)-2-fluorotetrahydro-1H-pyrrolizin-7a(5H)-yl)methoxy-d2)pyrido[4,3-d]pyrimidine]", "IC50": "50 to 500"},
      {"smiles": "[2H]C([2H])(Oc1nc(N2CCCC[C@H]3[C@H](F)[C@H]32)c2cnc(-c3cccc4c(F)cc(F)c(C#C)c34)c(F)c2n1)[C@@]12CCCN1C[C@H](F)C2", "note": "[Example 112, 7-(8-ethynyl-5,7-difluoronaphthalen-1-yl)-8-fluoro-4-((1S,7R,8S)-8-fluoro-2-azabicyclo[5.1.0]octan-2-yl)-2-(((2R,7aS)-2-fluorotetrahydro-1H-pyrrolizin-7a(5H)-yl)methoxy-d2)pyrido[4,3-d]pyrimidine]", "IC50": "50 to 500"},
      {"smiles": "C#Cc1c(F)ccc2cc(N)cc(-c3ncc4c(N5CCOC[C@H]6[C@H](F)[C@H]65)nc(OC[C@@]56CC7(CC7)CN5CCC65CC5)nc4c3F)c12", "note": "[Example 207, 4-(2-(((S)-dihydro-5′H-dispiro[cyclopropane-1,1′-pyrrolizine-6′,1″- cyclopropan]-7a′(7′H)-yl)methoxy)-8-fluoro-4-((1S,7S,8S)-8-fluoro-5-oxa-2-azabicyclo[5.1.0]octan-2-yl)pyrido[4,3-d]pyrimidin-7-yl)-5-ethynyl-6-fluoronaphthalen-2-amine]", "IC50": "< 50"},
      {"smiles": "[2H]C([2H])(Oc1nc(N2CC[C@H](C#N)C[C@H]3[C@@H](F)[C@H]32)c2cnc(-c3cc(N)cc4ccc(F)c(C#C)c34)c(F)c2n1)[C@@]12CCCN1C[C@H](F)C2", "note": "[Example 310, (1S,5R,7R,8R)-2-(7-(3-amino-8-ethynyl-7-fluoronaphthalen-1-yl)-8-fluoro-2-(((2R,7aS)-2-fluorotetrahydro-1H-pyrrolizin-7a(5H)-yl)methoxy-d2)pyrido[4,3-d]pyrimidin-4-yl)-8-fluoro-2-azabicyclo[5.1.0]octane-5-carbonitrile]", "IC50": "50 to 500"},
      {"smiles": "C=C1CN2CCC[C@@]2(COc2nc(N3CCCC[C@H]4[C@H](F)[C@H]43)c3cnc(-c4cc(N)c(F)c(C)c4C(F)(F)F)c(F)c3n2)C1", "note": "[Example 392, 2-fluoro-5-(8-fluoro-4-((1S,7R,8S)-8-fluoro-2-azabicyclo[5.1.0]octan-2-yl)-2-(((S)-2-methylenetetrahydro-1H-pyrrolizin-7a(5H)-yl)methoxy)pyrido[4,3-d]pyrimidin-7-yl)-3-methyl-4-(trifluoromethyl)aniline]", "IC50": "50 to 500"},
      {"smiles": "[2H]C([2H])(Oc1nc(N2CCOCC3C2C3(Cl)Cl)c2cnc(-c3cc(N)cc4ccc(F)c(C#C)c34)c(F)c2n1)[C@@]12CCCN1C[C@H](F)C2", "note": "(stereo partly drawn) [Example 240, 4-(4-(8,8-dichloro-5-oxa-2-azabicyclo[5.1.0]octan-2-yl)-8-fluoro-2-(((2R,7aS)-2-fluorotetrahydro-1H-pyrrolizin-7a(5H)-yl)methoxy-d2)pyrido[4,3-d]pyrimidin-7-yl)-5-ethynyl-6-fluoronaphthalen-2-amine]", "IC50": "500 to 10000"},
      {"smiles": "C=C1CN2CCC[C@@]2(COc2nc(N3CCOC[C@H]4[C@H](F)[C@H]43)c3cc(C(F)(F)F)c(-c4ccc(F)c5sc(N)c(C#N)c45)c(F)c3n2)C1", "note": "(atropisomer, axis not shown) [Example 432, 2-amino-7-fluoro-4-((S)-8-fluoro-4-((1S,7S,8S)-8-fluoro-5-oxa-2-azabicyclo[5.1.0]octan-2-yl)-2-(((S)-2-methylenetetrahydro-1H-pyrrolizin-7a(5H)-yl)methoxy)-6-(trifluoromethyl)quinazolin-7-yl)benzo[b]thiophene-3-carbonitrile]", "IC50": "< 50"},
      {"smiles": "[2H]C([2H])(Oc1nc(N2CC[C@H](C#N)C[C@@H]3[C@H](F)[C@@H]32)c2cnc(-c3cc(N)cc4ccc(F)c(C#C)c34)c(F)c2n1)[C@@]12CCCN1C[C@H](F)C2", "note": "(stereo in doubt) [Example 309, (1R,SR,7S,8S)-2-(7-(3-amino-8-ethynyl-7-fluoronaphthalen-1-yl)-8-fluoro-2-(((2R,7aS)-2-fluorotetrahydro-1H-pyrrolizin-7a(5H)-yl)methoxy-d2)pyrido[4,3-d]pyrimidin-4-yl)-8-fluoro-2-azabicyclo[5.1.0]octane-5-carbonitrile]", "IC50": "50 to 500"},
      {"smiles": "C#Cc1c(F)ccc2cccc(-c3ncc4c(N5CCOC[C@H]6[C@H](F)[C@H]65)nc(OC[C@]56CCCN5CC(=C(F)F)C6)nc4c3F)c12", "note": "[Example 104, (1S,7S,8S)-2-(2-(((R)-2-(difluoromethylene)tetrahydro-1H-pyrrolizin-7a(5H)-yl)methoxy)-7-(8-ethynyl-7-fluoronaphthalen-1-yl)-8-fluoropyrido[4,3-d]pyrimidin-4-yl)-8-fluoro-5-oxa-2-azabicyclo[5.1.0]octane]", "IC50": "< 50"},
      {"smiles": "C#Cc1c(F)ccc2cc(N)cc(-c3ncc4c(N5CCOC[C@H]6[C@H](F)[C@H]65)nc(OC[C@]56C[C@H](C)CN5CCC65CC5)nc4c3F)c12", "note": "(single isomer, unassigned) [Example 251]", "IC50": "< 50"},
      {"smiles": "C#Cc1c(F)ccc2cc(O)cc(-c3ncc4c(N5CCOC[C@H]6[C@H](F)[C@H]65)nc(OC[C@]56C[C@@H](F)CN5C[C@@H](CN)C6)nc4c3F)c12", "note": "[Example 198, 4-(2-(((2R,6R,7aS)-2-(aminomethyl)-6-fluorotetrahydro-1H-pyrrolizin-7a(5H)-yl)methoxy)-8-fluoro-4-((1S,7S,8S)-8-fluoro-5-oxa-2-azabicyclo[5.1.0]octan-2-yl)pyrido[4,3-d]pyrimidin-7-yl)-5-ethynyl-6-fluoronaphthalen-2-ol]", "IC50": "50 to 500"}
    ]},
    {"tested_on": "KRAS G12V dependent lung adenocarcinoma cell line, NCI-H441", "assay": "Cellular pERK (Thr202/Tyr204) FRET/HTRF assay", "type": "cell-based", "settings": "Homo sapiens, NCI-H441, pERK HTRF, NCI-H441 cells (KRAS G12V)", "in_short": "as §1", "units": {"IC50": "nM"}, "values": [
      {"smiles": "[2H]C([2H])(F)Oc1c(F)ccc2cccc(-c3ncc4c(N5CCOC[C@H]6[C@H](F)[C@H]65)nc(OC([2H])([2H])[C@@]56CCCN5C[C@H](F)C6)nc4c3F)c12", "note": "[Example 80, (1S,7S,8S)-8-Fluoro-2-(8-fluoro-7-(7-fluoro-8-(fluoromethoxy-d2)naphthalen-1-yl)-2-(((2R,7aS)-2-fluorotetrahydro-1H-pyrrolizin-7a(5H)-yl)methoxy-d2)pyrido[4,3-d]pyrimidin-4-yl)-5-oxa-2-azabicyclo[5.1.0]octane]", "IC50": "< 50"},
      {"smiles": "[2H]C([2H])(Oc1nc(N2CCC3CC3CC2)c2cnc(-c3cc(N)cc4cc(F)c(F)c(C#C)c34)c(F)c2n1)[C@@]12CCCN1C[C@H](F)C2", "note": "(stereo partly drawn) [Example 9, 4-(4-(4-Azabicyclo[5.1.0]octan-4-yl)-8-fluoro-2-(((2R,7aS)-2-fluorotetrahydro-1H-pyrrolizin-7a(5H)-yl)methoxy-d2)pyrido[4,3-d]pyrimidin-7-yl)-5-ethynyl-6,7-difluoronaphthalen-2-amine]", "IC50": "50 to 500"},
      {"smiles": "[2H]C([2H])(Oc1nc(N2CCO[C@H]3C[C@H]32)c2cnc(-c3cc(N)cc4cc(F)c(F)c(C#C)c34)c(F)c2n1)[C@@]12CCCN1C[C@H](F)C2", "note": "[Example 32, 4-(4-((1S,6R)-2-Oxa-5-azabicyclo[4.1.0]heptan-5-yl)-8-fluoro-2-(((2R,7aS)-2-fluorotetrahydro-1H-pyrrolizin-7a(5H)-yl)methoxy-d2)pyrido[4,3-d]pyrimidin-7-yl)-5-ethynyl-6,7-difluoronaphthalen-2-amine]", "IC50": "50 to 500"}
    ]},
    {"tested_on": "KRAS G12V dependent lung adenocarcinoma cell line, NCI-H441", "assay": "Cellular pERK (Thr202/Tyr204) FRET/HTRF assay", "type": "cell-based", "settings": "cellular pERK (Thr202/Tyr204) HTRF, NCI-H441 cells", "in_short": "as §1", "units": {"IC50": "nM"}, "values": [
      {"smiles": "[2H]C([2H])(Oc1nc(N2CCOC[C@H]3[C@H](F)[C@H]32)c2cc(Cl)c(-c3cc(N)cc4ccc(F)c(C#C)c34)c(F)c2n1)[C@@]12CCCN1C[C@H](F)C2", "note": "(atropisomer, axis not shown; (aS)) [Example 361, 4-((S)-6-chloro-8-fluoro-4-((1S,7S,8S)-8-fluoro-5-oxa-2-azabicyclo[5.1.0]octan-2-yl)-2-(((2R,7aS)-2-fluorotetrahydro-1H-pyrrolizin-7a(5H)-yl)methoxy-d2)quinazolin-7-yl)-5-ethynyl-6-fluoronaphthalen-2-amine]", "IC50": "500 to 10000"},
      {"smiles": "[2H]C([2H])(Oc1nc(N2CCOC[C@H]3[C@H](F)[C@H]32)c2cc(F)c(-c3cc(N)cc4ccc(F)c(C#C)c34)c(F)c2n1)[C@@]12CCCN1C[C@H](F)C2", "note": "(atropisomer, axis not shown; (aS)) [Example 391, 4-((R)-6,8-difluoro-4-((1S,7S,8S)-8-fluoro-5-oxa-2-azabicyclo[5.1.0]octan-2-yl)-2-(((2R,7aS)-2-fluorotetrahydro-1H-pyrrolizin-7a(5H)-yl)methoxy-d2)quinazolin-7-yl)-5-ethynyl-6-fluoronaphthalen-2-amine]", "IC50": "< 50"}
    ]},
    {"tested_on": "KRAS G12V dependent lung adenocarcinoma cell line, NCI-H441", "assay": "Cellular pERK (Thr202/Tyr204) FRET/HTRF assay", "type": "cell-based", "settings": "cellular pERK HTRF, NCI-H441 (KRAS G12V) cells", "in_short": "as §1", "units": {"IC50": "nM"}, "values": [
      {"smiles": "[2H]C([2H])(Oc1nc(N2CCOC[C@H]3[C@H](F)[C@H]32)c2cc(F)c(-c3cc(N)cc4ccc(F)c(C#C)c34)c(C)c2n1)[C@@]12CCCN1C[C@H](F)C2", "note": "(atropisomer, axis not shown; (aS)) [Example 434, 5-Ethynyl-6-fluoro-4-((R)-6-fluoro-4-((1S,7S,8S)-8-fluoro-5-oxa-2-azabicyclo[5.1.0]octan-2-yl)-2-(((2R,7aS)-2-fluorotetrahydro-1H-pyrrolizin-7a(5H)-yl)methoxy-d2)-8-methylquinazolin-7-yl)naphthalen-2-amine]", "IC50": "500 to 10000"}
    ]}
  ]
}
